Data: PubChem BioAssay AID248 (DTP/NCI, 2004)
“And” between values parts separate entries of the source, which are not always exact repeats. Equal entries are not always repeated. Toxic doses and inconclusive results are not listed. No stated cut-off is given here; in the data, active means T/C of 150% or more; inactive means T/C below 125%.

Test system: L1210 leukemia ip in BDF1 mice, survival T/C
Test: NCI In Vivo Anticancer Drug Screen. Data for tumor model L1210 Leukemia (intraperitoneal) in B6D2F1 (BDF1) mice
Settings: endpoint: mean survival time, higher = longer survival
Summary of the method: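 Mice bearing the transplanted tumor received compound or vehicle. Survival of the treated group was divided by that of the vehicle-treated control group to give the ratio.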

[1] = dose: 100.0 mg/kg/injection, schedule: Q01DX001 (ip), vehicle: Klucel (hydroxypropylcellulose) (HPC)
[2] = dose: 100.0 mg/kg/injection, schedule: Q04DX003 (ip), vehicle: Klucel (hydroxypropylcellulose) (HPC)
[3] = dose: 200.0 mg/kg/injection, schedule: Q01DX001 (ip), vehicle: Klucel (hydroxypropylcellulose) (HPC)
[4] = dose: 200.0 mg/kg/injection, schedule: Q04DX003 (ip), vehicle: Klucel (hydroxypropylcellulose) (HPC)
[5] = dose: 400.0 mg/kg/injection, schedule: Q01DX001 (ip), vehicle: Klucel (hydroxypropylcellulose) (HPC)
[6] = dose: 400.0 mg/kg/injection, schedule: Q04DX003 (ip), vehicle: Klucel (hydroxypropylcellulose) (HPC)
[7] = dose: 100.0 mg/kg/injection, schedule: Q01DX009 (ip), vehicle: Klucel (hydroxypropylcellulose) (HPC)
[8] = dose: 200.0 mg/kg/injection, schedule: Q01DX009 (ip), vehicle: Klucel (hydroxypropylcellulose) (HPC)
[9] = dose: 400.0 mg/kg/injection, schedule: Q01DX009 (ip), vehicle: Klucel (hydroxypropylcellulose) (HPC)
[10] = dose: 100.0 mg/kg/injection, schedule: Q01DX009 (ip), vehicle: saline
[11] = dose: 100.0 mg/kg/injection, schedule: Q04DX003 (ip), vehicle: saline
[12] = dose: 200.0 mg/kg/injection, schedule: Q04DX003 (ip), vehicle: saline
[13] = dose: 100.0 mg/kg/injection, schedule: Q04DX003 (ip), vehicle: saline with Tween-80
[14] = dose: 100.0 mg/kg/injection, schedule: Q01DX001 (ip), vehicle: other
[15] = dose: 200.0 mg/kg/injection, schedule: Q01DX001 (ip), vehicle: other
[16] = dose: 400.0 mg/kg/injection, schedule: Q01DX001 (ip), vehicle: other
[17] = dose: 75.0 mg/kg/injection, schedule: Q01DX001 (ip), vehicle: saline
[18] = dose: 150.0 mg/kg/injection, schedule: Q01DX001 (ip), vehicle: saline
[19] = dose: 300.0 mg/kg/injection, schedule: Q01DX001 (ip), vehicle: saline
[20] = dose: 100.0 mg/kg/injection, schedule: Q01DX001 (ip), vehicle: saline
[21] = dose: 200.0 mg/kg/injection, schedule: Q01DX001 (ip), vehicle: saline
[22] = dose: 400.0 mg/kg/injection, schedule: Q01DX001 (ip), vehicle: saline

Measured: T/C

CC1=CCc2c(NS(=O)(=O)N(C)C)ccc(NS(=O)(=O)N(C)C)c2C1
inactive: [1] 101 % of control | [2] 94 % of control | [3] 97 % of control | [4] 93 % of control | [5] 97 % of control | [6] 91 % of control

COc1ccc(NC(=O)C(Br)C(Br)c2ccccc2)c(Cl)c1 (stereo unspecified)
inactive: [7] 102 % of control | [8] 97 % of control | [9] 96 % of control

CCc1ccc(/C(C#N)=C/c2ccc(OC)cc2)cc1
inactive: [7] 92 % of control | [8] 94 % of control | [9] 92 % of control

CCCCNC=O
inactive: [10] 101 % of control | [11] 102 % of control | dose: 200.0 mg/kg/injection, schedule: Q01DX009 (ip), vehicle: saline 106 % of control | [12] 93 % of control | dose: 400.0 mg/kg/injection, schedule: Q01DX009 (ip), vehicle: saline 108 % of control | dose: 400.0 mg/kg/injection, schedule: Q04DX003 (ip), vehicle: saline 111 % of control

CC1(C)CC(C(=O)c2ccccc2)C(=O)c2ccccc21 (stereo unspecified)
inactive: [1] 105 % of control | [3] 97 % of control | [5] 86 % of control

Cc1cccc(Br)[n+]1[O-]
inactive: dose: 50.0 mg/kg/injection, schedule: Q01DX009 (ip), vehicle: saline 110 % of control | [10] 112 % of control | [11] 102 % of control | [12] 97 % of control

CN(C)C(=O)c1cccc(NC(=O)NCc2cccc(N3C(N)=NC(N)=NC3(C)C)c2)c1
inactive: dose: 100.0 mg/kg/injection, schedule: Q01DX009 (ip), vehicle: saline with Tween-80 91 % of control | [13] 97 % of control

ClCC(Cl)CN1CCCCC1 (stereo unspecified)
inactive: [13] 112 % of control

Cc1c(C(C)(C(=O)O)c2c(C)n(C)c3ccccc23)c2ccccc2n1C
inactive: dose: 50.0 mg/kg/injection, schedule: Q01DX001 (ip), vehicle: other 96 % of control | [14] 93 % of control | [15] 91 % of control | [16] 96 % of control

CCCCNC(=O)Nc1ccc(OC)cc1
inactive: [7] 103 % of control | [2] 96 % of control | [8] 92 % of control | [4] 93 % of control | [9] 90 % of control | [6] 102 % of control

CC(=O)OCc1ccc(OC(C)=O)cn1
inactive: dose: 100.0 mg/kg/injection, schedule: Q01DX001 (ip), vehicle: carboxymethylcellulose (CMC) 100 % of control | dose: 200.0 mg/kg/injection, schedule: Q01DX001 (ip), vehicle: carboxymethylcellulose (CMC) 103 % of control | dose: 400.0 mg/kg/injection, schedule: Q01DX001 (ip), vehicle: carboxymethylcellulose (CMC) 94 % of control

CCN(CC)CCNc1nc2ccc(C(=O)O)cc2s1
inactive: [17] 100 % of control | [18] 98 % of control | [19] 94 % of control

CCOC(=O)c1c[nH]c2c(Cl)cc(Cl)cc2c1=O
inactive: [14] 104 % of control | [15] 95 % of control | [16] 101 % of control

C=C1C=C(C)N(C(=O)c2ccc(Cl)cc2)CCN1C(=O)c1ccc(Cl)cc1
inactive: [7] 100 % of control | [8] 90 % of control | [9] 92 % of control

O=C(c1ccccc1)c1nc2ccccc2[nH]1
inactive: dose: 100.0 mg/kg/injection, schedule: Q04DX002 (ip), vehicle: Klucel (hydroxypropylcellulose) (HPC) 108 % of control | dose: 200.0 mg/kg/injection, schedule: Q04DX002 (ip), vehicle: Klucel (hydroxypropylcellulose) (HPC) 101 % of control | dose: 400.0 mg/kg/injection, schedule: Q04DX002 (ip), vehicle: Klucel (hydroxypropylcellulose) (HPC) 104 % of control

COC(C)c1cnccc1/C(C)=C1/Nc2ccccc2C1=O (stereo unspecified)
inactive: dose: 50.0 mg/kg/injection, schedule: Q04DX003 (ip), vehicle: Klucel (hydroxypropylcellulose) (HPC) 95 % of control | [1] 107 % of control | [2] 100 % of control and 91 % of control | [3] 94 % of control | [4] 96 % of control | [5] 97 % of control | [6] 97 % of control

CCN1C(/C=C/c2ccc(O)c3ncccc23)CCC2CC(C)CCC21 (stereo unspecified)
inactive: [17] 117 % of control | [18] 119 % of control | [19] 120 % of control

COc1cc(C(=O)NOCc2cc3c(cc2Cl)OCO3)cc(OC)c1OC
inactive: dose: 200.0 mg/kg/injection, schedule: Q04DX003 (ip), vehicle: saline sonified 92 % of control | dose: 400.0 mg/kg/injection, schedule: Q04DX003 (ip), vehicle: saline sonified 90 % of control

COc1cc(NCC(O)C(O)C(O)CO)c([N+](=O)[O-])cc1OC (stereo unspecified)
inactive: [20] 92 % of control | [21] 99 % of control | [22] 100 % of control

ClC(Cl)(Cl)C1NCCO1 (stereo unspecified)
inactive: [7] 96 % of control | [2] 102 % of control | [8] 97 % of control | [4] 94 % of control | [9] 89 % of control | [6] 94 % of control

CC1CC(O)C([N+](=O)[O-])C(O)C1 (stereo unspecified)
inactive: dose: 12.5 mg/kg/injection, schedule: Q01DX009 (ip), vehicle: saline 102 % of control

COc1ccc(Cl)cc1NC(=O)Nc1cccc(F)c1
inactive: [7] 97 % of control | [8] 97 % of control | [9] 97 % of control

CCOC(=O)C(C(=O)OCC)C(C)(C)Cc1ccccc1
inactive: [7] 92 % of control | [8] 100 % of control | [4] 96 % of control | [9] 93 % of control | [6] 93 % of control

O=C(NC(=S)N1CC1)c1ccccc1
inactive: dose: 100.0 mg/kg/injection, schedule: Q04DX002 (sc), vehicle: olive oil, sesame oil, peanut oil 100 % of control | dose: 200.0 mg/kg/injection, schedule: Q04DX002 (sc), vehicle: olive oil, sesame oil, peanut oil 103 % of control | dose: 400.0 mg/kg/injection, schedule: Q04DX002 (sc), vehicle: olive oil, sesame oil, peanut oil 100 % of control

CC1=CCCC(C)(C)C1/C=C/C(=O)O (stereo unspecified)
inactive: [7] 105 % of control | [8] 97 % of control | [9] 101 % of control

NC(=O)n1cnc(N)n1
inactive: dose: 50.0 mg/kg/injection, schedule: Q01DX001 (ip), vehicle: saline 98 % of control | [20] 98 % of control | [21] 104 % of control | [22] 107 % of control

O=[N+]([O-])c1cc(C(F)(F)F)ccc1Oc1ccccc1
inactive: [13] 95 % of control | dose: 200.0 mg/kg/injection, schedule: Q04DX003 (ip), vehicle: saline with Tween-80 110 % of control | dose: 400.0 mg/kg/injection, schedule: Q04DX003 (ip), vehicle: saline with Tween-80 101 % of control
